Where a name gives a salt, the structure may show the parent alone. Read-outs that look alike come from different tables or passages of the source.
Assays:
PPC-1 cells [1] = test: MTT cell viability of PPC-1 cells treated with compound with or without CH-11 anti-FAS antibody; assay type: cell-based; settings: for IC50: read-out: LD50 (μM) PPCl; for LD50 (μM) (PPCl, CH-11): PPC-1 cells with CH-11 100 ng/mL, MTT 24 hours, LD50 = concentration that reduces cell viability by 50%
Description: FIGS. 2A-C. […] PPC-1 cells (1×10^4) were seeded in 96 well plates. The next day, cells were treated with increasing concentrations of the sensitizing compounds with (open squares) and without (closed squares) CH-11 antibody (100 ng/mL). Cell viability was measured 24 hours later by MTT assay. Cell viability is expressed as a mean percentage of untreated cells+SD (n=3). The Chembridge identification numbers of the compounds are provided.
High throughput screening. […] PPC-1 cells (1×10^4) were seeded overnight into 96 well, flat-bottom plates (Costar, Cambridge, Mass.) in 100 μL of medium containing 2.5% FCS. […] CH-11 antibody (100 ng/mL) was then added, and the cells were incubated for 24 hours before assessing cell viability by a 3-(4,5-Dimethylthiazol-2-yl)-2,5-diphenyltetrazolium Bromide (MTT) dye reduction assay (Sigma).
Cell death assays. […] Absorbance readings were plotted against a standard curve to derive the corresponding cell number, and cell viability was expressed as a percentage relative to untreated cells.

PPC-1 cells [2] = test: Anoikis of PPC-1 cells in suspension versus adherent conditions (annexin V/PI, DAPI, colony formation); assay type: cell-based, human
Description: FIG. 12. Depletion of endogenous FLIP levels by siRNA sensitizes malignant cells to anoikis. (A) PPC-1 cells were seeded in adherent conditions overnight and then transfected with 25 nM anti-FLIP siRNA (siFLIP) or control luciferase siRNA (siCtrl). Thirty hours after transfection, cells were harvested, total protein isolated and analyzed by SDS-PAGE immunoblotting using anti-FLIP and anti-actin antibodies. (B) PPC-1 cells were transfected with increasing concentrations of siFLIP or siCtrl. After transfection, cells were treated with CH-11 Fas activating antibody (100 ng/ml). Thirty hours after incubation, cells were harvested and apoptosis measured by flow cytometry to detect cell surface annexin V expression and PI uptake. Data represents the mean±SEM percent of viable cells. (C) PPC-1 cells were transfected with increasing concentrations of siFLIP or siCtrl. After transfection, cells were subcultured under suspension conditions for 30 hours and then harvested. Apoptosis was measured by flow cytometry to detect cell surface annexin V expression and PI uptake. Data represents the mean±SEM of percent of viable cells. (D) Equal volumes of PPC-1 cells from panel C were replated under adherent conditions to permit clonogenic growth. One week after replating, cells were stained with methylene blue and the number of colonies counted. Data represents the mean±SEM percent of colonies compared to untreated controls.
(§1) FIG. 13. Small molecule down-regulation of FLIP sensitizes prostate cancer cells to anoikis. (A) PPC-1 cells were seeded overnight in adherent conditions and then treated with increasing concentrations of 5809354 for 16 hours. After incubation, cells were harvested. Total cellular RNA was extracted and mRNA levels of the long isoform of FLIP (FLIPL), the short isoform of FLIP (FLIPS), or rRNA levels of 18S were detected by real-time RT-PCR. Data were normalized using the ΔΔCT method and expressed as the mean±SEM percent of […] expression relative to untreated controls. (B) PPC-1 cells were cultured and treated as in panel A. Total cellular protein was isolated and analyzed by SDS-PAGE immunoblotting using anti-FLIP and anti-Actin antibodies. (C) PPC-1 cells were seeded overnight in adherent conditions and then exposed to increasing concentrations of 5809354 in the presence or absence of Fas-activating antibody (CH-11, 100 ng/mL). Thirty hours after incubation, cell viability was determined using the MTS assay. Data represents the mean±SEM of percent of viable cells. (D) PPC-1 cells were seeded overnight in adherent or suspension conditions and then treated with increasing concentrations of 5809354 for 30 hours. After incubation, apoptosis was measured by flow cytometry to detect cell surface annexin V expression and PI. Data represents the mean±SEM of percent of viable cells. (E) Cells were harvested, fixed, stained with DAPI, and nuclear morphology analyzed by fluorescence microscopy. Arrowheads refer to fragmented nuclei indicative of apoptosis. […] Thirty hours after incubation, cells were harvested and equal volumes plated in a colony formation assay. One week later, cells were stained with methylene blue and the number of colonies counted. Data represents the mean ±SEM percent of colonies relative to untreated controls.
FIG. 15. 5809354 sensitizes cells to anoikis through a caspase 8 dependent mechanism. (A) PPC-1 cells (5×10^4) were cultured under suspension conditions overnight and then treated with 5809354 in the presence or absence of the pan-caspase inhibitor z-VAD-fink (100 μM). Thirty hours after incubation, anoikis was determined by flow cytometry to detect cell surface annexin V expression and PI uptake. Data represents the mean±SEM percent of viable cells or colonies compared to untreated controls. (B) PPC-1 cells (5×10^4) were cultured in suspension conditions overnight and then treated with 5809354 (60 μM). […]

PPC-1 cells [3] = test: MTS viability of adherent PPC-1 cells with or without CH-11, thirty hours; assay type: cell-based, human; settings: CH-11 100 ng/mL
Description: FIG. 13. Small molecule down-regulation of FLIP sensitizes prostate cancer cells to anoikis. (A) PPC-1 cells were seeded overnight in adherent conditions and then treated with increasing concentrations of 5809354 for 16 hours. After incubation, cells were harvested. Total cellular RNA was extracted and mRNA levels of the long isoform of FLIP (FLIPL), the short isoform of FLIP (FLIPS), or rRNA levels of 18S were detected by real-time RT-PCR. Data were normalized using the ΔΔCT method and expressed as the mean±SEM percent of […] expression relative to untreated controls. (B) PPC-1 cells were cultured and treated as in panel A. Total cellular protein was isolated and analyzed by SDS-PAGE immunoblotting using anti-FLIP and anti-Actin antibodies. […] Thirty hours after incubation, cell viability was determined using the MTS assay. […] After incubation, apoptosis was measured by flow cytometry to detect cell surface annexin V expression and PI. […] (E) Cells were harvested, fixed, stained with DAPI, and nuclear morphology analyzed by fluorescence microscopy. […] One week later, cells were stained with methylene blue and the number of colonies counted. […]
Cell viability apoptosis, colony formation, and caspase activation assays. Cell viability was assessed using the MTS reduction assay (Promega, Madison, Wis., USA) according to the manufacturer's protocols and as described in Schimmer et al. (2006). […]

FLIP = FLIP protein levels by SDS-PAGE/immunoblotting; assay type: cell-based, human; settings: PPC-1 cells
Description: FIG. 7. Effect of FAS-sensitizing compounds on levels of FLIP protein and DISC activation. (A) PPC-1 cells (2×10^5) were seeded into 35 mm plates and treated the next day with various FAS-sensitizing compounds (30 μM), with (+) or without (−) CH-11 antibody (100 ng/mL). As a positive control, cells were treated with CDDO (5 μM). Cell lysates were prepared 24 hours later, normalized for total protein content, and analyzed by SDS-PAGE/immunoblotting using antibodies specific for FLIP or a-tubulin. (B) PPC-1, OVCAR-3, T47D, MDA-MB-468 and DU 145 cells (2×10^5) were seeded into 35 mm plates and treated the next day with 5809354 (40 μM). Cell lysates were prepared 24 hours after treatment, normalized for total protein and analyzed by SDS-PAGE/immunoblotting using antibodies specific for FLIP or β-actin. (C) PPC-1, OVCAR-3, T47D, and DU 145 cells (2×10^5) were seeded into 35 mm plates and treated the next day with 5809354 (40 μM) (black bars) or buffer control (white bars). mRNA was extracted 24 hours after treatment. Levels of the long isoform of FLIP and GAPDH were detected by quantitative RT-PCR. Levels of FLIP were normalized for GAPDH expression and expressed as a mean fold change+SD over buffer treated cells. (D) PPC-1 cells (2×10^5) were seeded into 35 mm plates and treated the next day with various FAS-sensitizing compounds (30 μM) with (+) or without (−) CH-11 (100 ng/mL). Cell lysates were prepared 24 hours after treatment, normalized for total protein, and analyzed by SDS-PAGE/immunoblotting using antibodies specific for caspase-8 and β-actin.
as §1
Immunoblot analysis. Protein extracts were obtained by washing cells with phosphate-buffered saline (PBS) [pH 7.4] and suspending the cells in lysis buffer [10 mM Tris (pH 7.4), 150 mM NaCl, 0.1% Triton X-100, 0.5% sodium deoxycholate, and 5 mM EDTA] containing protease inhibitors (Complete tablets; Roche, Indianapolis, Ind.). Immunoblot assays were performed as described in Carter et al. (2005). […]

[4] = Homo sapiens, PPC-1, 24 h, PPC-1 cells, compound alone without CH-11, MTT 24 hours

Row | Structure (SMILES) | IC50 (PPC-1 cells [1]; [4]) | LD50 (μM) (PPCl, CH-11) (PPC-1 cells [1]) | other results
1 | Br.Cc1ccc(Cn2c(=N)n(CC(=O)c3cc(C(C)(C)C)c(O)c(C(C)(C)C)c3)c3ccccc32)cc1 [compound 5651311, 1-(3,5-di-tert-butyl-4-hydroxyphenyl)-2-(2-imino-3-(4-methylbenzyl)-2,3-dihydro-1H-benzo[d]imidazol-1-yl)ethanone hydrobromide] | 19 µM | 9 µM | –
2 | CCOCCCNC(=O)CCCOc1ccc(Cl)cc1C [compound 7271570, (4-(4-chloro-2-methylphenoxy))-N-(3-ethoxypropyl)-butanamide] | – | – | sensitization to anoikis (PPC-1 cells [2]; suspension conditions, 30 hours): failed to sensitize; colony formation after suspension culture (PPC-1 cells [2]; thirty hours in suspension, colonies counted one week later): inactive; viability in the presence of Fas-activating antibody (CH-11) (PPC-1 cells [3]): failed to sensitize; FLIP protein expression (FLIP; Example 2, increasing concentrations, 16 hours): failed to decrease FLIP levels
3 | O=C(Nc1ccc(Cl)c(C(F)(F)F)c1)c1cccs1 [N-[4-chloro-3-(trifluoromethyl)phenyl]-2-thiophenecarboxamide] | 96 ± 1 µM | 35 ± 11 µM | –
4 | O=C(Cc1ccc(Cl)cc1)N1CCN(C/C=C/c2ccccc2)CC1 [compound 5703229, 1-[(4-chlorophenyl)acetyl]-4-[(2e)3-phenylprop-2-enyl]piperazine] | – | 34+4 μM | IC50 (PPC-1 cells [1]; Homo sapiens, PPC-1, 24 h): 50 µM
5 | C/C(CC(=O)Nc1ccc(Cl)c(C(F)(F)F)c1)=N\NC(=O)c1cnccn1 [N-(4-Chloro-3-trifluoromethyl-phenyl)-3-[(pyrazine-2-carbonyl)-hydrazono]-butyramide] | 67 ± 3 µM | 11 ± 3 µM | –
6 | Cn1c(=N)n(CC(=O)c2cc(C(C)(C)C)c(O)c(C(C)(C)C)c2)c2ccccc21 [compound 5541203, 1-(3,5-di-tert-butyl-4-hydroxyphenyl)-2-(2-imino-3-methyl-2,3-dihydro-1H-benzo[d]imidazol-1-yl)ethanone hydrobromide] | 45 µM | 25.7 µM | EC50 (PPC-1 cells [1]; Homo sapiens, PPC-1, with anti-FAS antibody, read-out: EC50 as a FAS-sensitizer in PPC1 cells): 25.7 µM; IC50 (PPC-1 cells [1]; PPC-1 cells, compound alone without CH-11, MTT 24 hours; hydrobromide)): 45.4 µM; levels of FLIP protein (FLIP; 30 μM, with or without CH-11, 24 hours, long isoform): had little effect
7 | O=C(CCc1ccccc1)Nc1cc(C(F)(F)F)ccc1Cl [N-[2-chloro-5-(trifluoromethyl)phenyl]-3-phenylpropanamide] | > 100 µM | >100 µM | –
8 | O=C(CCc1ccccc1)Nc1ccc(Cl)c(C(F)(F)F)c1 [N-[4-chloro-3-(trifluoromethyl)-phenyl]-3-phenyl-proionamide] | 85 ± 3 µM | 11 ± 1 µM | –
9 | CC(=O)CC(=O)Nc1cc(C(F)(F)F)ccc1Cl [N-[2-chloro-5-(trifluoromethyl)phenyl]-3-oxobutanamide] | 75 ± 1 µM | 65 ± 5 µM | –
10 | CC(C)(C)c1cc(C(=O)Cn2c(=N)n(CCN3CCCCC3)c3ccccc32)cc(C(C)(C)C)c1O.Cl [compound 5529457, 1-(3,5-di-tert-butyl-4-hydroxyphenyl)-2-(2-imino-3-(2-(piperidin-1-yl)ethyl)-2,3-dihydro-1H-benzo[d]imidazol-1-yl)ethanone hydrochloride] | 7.5 µM | 3.7 µM | –
11 | Br.CC(C)(C)c1cc(C(=O)Cn2c(=N)n(Cc3ccccc3)c3ccccc32)cc(C(C)(C)C)c1O [compound 5657593, 2-(3-benzyl-2-imino-2,3-dihydro-1H-benzo[d]imidazol-1-yl)-1-(3,5-di-tert-butyl-4-hydroxyphenyl)ethanone hydrobromide] | 9.1 µM | 3.4 µM | –
12 | O=C(CCc1ccccc1)Nc1ccc(Cl)cc1C(F)(F)F [N-[4-chloro-2-(trifluoromethyl)phenyl]-3-phenylpropanamide] | > 100 µM | >100 µM | –

Reference: US8008354B2, “Death receptor sensitizing compounds and methods of use therefor” (Burnham Institute for Medical Research, priority 2006, dated 2011)
